Assay results from US6949558B2, “Enhancement of taxane-based chemotherapy by a CDK1 antagonist” (Yale University, priority 2001, dated 2005).

How the values were obtained:
MCF-7 xenografts = assay type: in vivo; conditions: adriamycin 2 mg/kg or flavopiridol 15 mg/kg alone, i.p.
Text: Each complete cycle was separated by 2 d without treatment.
This test generates a P value testing the null hypothesis that the survival curves are identical in the overall populations.

[1] = tested on: survivin phosphorylation on Thr^34 in MCF-7 cells; assay: Survivin phosphorylation on Thr^34 in MCF-7 cells; assay type: cell-based, human; conditions: flavopiridol in the presence of 100 nM adriamycin
Experimental: (§1) In some experiments, total RNA was extracted from MCF-7 cells at various time intervals after adriamycin treatment, and hybridized with 32 P-labeled survivin cDNA as described previously. Radioactive bands were detected by autoradiography. […] In other experiments, samples were transferred to nylon membranes and analyzed by Western blotting with antibodies to p34^cdc2 (1 μg/ml), survivin (2 μg/ml), or survivinT34* (5 μg/ml).

[2] = tested on: survivin phosphorylation on Thr^34 in HeLa cells; assay: Survivin phosphorylation on Thr^34 in HeLa cells (immunoprecipitation, Western blotting); assay type: cell-based, human; conditions: increasing concentrations of flavopiridol, 24 h
Experimental: (§2) A. In vitro kinase assay. […] Radioactive bands were detected by autoradiography. […] The immune complexesb were analyzed by Western blotting (WB) with an antibody to Thr^34-phosphorylated survivin (a-survivinT34*, top panel) or with an antibody to survivin (a-survivin, lower panel) followed by chemiluminescence. For all panels, relative molecular weight markers in kDa are shown on the left.
as §1
Luciferase values were normalized to β-galactosidase expression.

p34^cdc2 = target: T1, p34^cdc2 (Homo sapiens, UniProt P06493); assay: H1 phosphorylation by p34^cdc2 immunoprecipitated from treated HeLa cells; assay type: cell-based; conditions: increasing concentrations of flavopiridol, 24 h
T1 construct: endogenous in cells; host or cells: HeLa cervical carcinoma cells (ATCC)
Experimental: as §2, §1

p34^cdc2-cyclin B1 = p34^cdc2-cyclin B1 (Homo sapiens, UniProt P06493); assay: In vitro kinase assay with baculovirus-expressed p34^cdc2-cyclin B1; assay type: biochemical; conditions: 100 nM flavopiridol
Experimental: as §2, §1

[3] = tested on: survivin expression in MCF-7 cells; assay: Survivin expression by Western blotting in MCF-7 cells; assay type: cell-based, human
Experimental: (§3) Cell Cultures, Proteins and Antibodies: Breast carcinoma MCF-7 and cervical carcinoma HeLa cells (American Type Culture Collection, Manassas, Va.) were maintained in culture according to the manufacturer's specifications. For treatment with genotoxic agents, HeLa or MCF-7 cells were incubated with vehicle (DMSO) or taxol (2 μM, Sigma Chemical Co., St. Louis, Mo.), adriamycin (100 nM, Sigma), cis-platin (3 μM, Sigma) or subjected to ultraviolet B (UVB) irradiation at 50 or 300 J/m^2. In some experiments, HeLa or MCF-7 treated with taxol, adriamycin or UVB as described above were incubated with inhibitors of transcription (actinomycin D, 1 μg/ml) or translation (cycloheximide, 2 mg/ml) before determination of protein expression by Western blotting. […] A replication-deficient adenovirus encoding wild type survivin (pAd-Survivin) or control encoding Green Fluorescence Protein (pAd-GFP) was generated using the pAd-Easy system as described previously (M. Mesri et al. (2001) J. Clin. Invest. 108: 981-90), and propagated in HEK293 cells with purification by CsCl banding. […] Antibodies to p34^cdc2 or bcl-2 were obtained from Pharmingen (San Diego, Calif.) and R&D, respectively. An antibody to β-actin was from Sigma and antibodies to MPM-2 mitotic phosphoproteins was from Upstate Biotechnology (Lake Placid, N.Y.).
as §1

HeLa cells = assay: Apoptosis by DNA content analysis and flow cytometry in HeLa cells; assay type: cell-based, human; conditions: increasing flavopiridol concentrations, 48 h
[4] = tested on: survivin expression in HeLa cells; assay: Survivin expression by Western blotting in HeLa cells; assay type: cell-based, human
Experimental: as §3, §1
In other experiments, HeLa cells were treated with taxol (0.2 μM) for 16 h followed by the DNA damaging agent adriamycin (100 nM, Sigma) or the nucleoside analog 5-Fluorouracil (500 μM, Sigma) for 8-32 h at 37° C. […] In some experiments, HeLa cells were transfected by lipofectamine with a minimal survivin promoter construct upstream of a luciferase reporter gene (pLuc-cyc1.2), as described (F. Li et al. (1998) Nature 396: 580-584). Cells were treated with taxol (2 μM) or UVB (50 J/m2), and analyzed for changes in luciferase activity at increasing time intervals (12-36 h) in a luminometer. Luciferase values were normalized to β-galactosidase expression. […] The immune complexes were separated by SDS gel electrophoresis and analyzed with antibodies to survivin or a-survivinT34* by Western blotting.

[5] = tested on: p34^cdc2 kinase activity (MPM-2 epitope) in HeLa cells; assay: MPM-2 mitotic phosphoepitope expression (p34^cdc2 kinase activity) in HeLa cells; assay type: cell-based, human; conditions: HeLa
[6] = tested on: Bcl-2 expression in HeLa cells; assay: Bcl-2 expression by Western blotting in HeLa cells; assay type: cell-based, human; conditions: flavopiridol, 48 h
Experimental: A. Concentration-dependence. […] B. Time-course. […] C. […] The experimental conditions are the same as in A, except that flavopiridol-treated HeLa cells were analyzed by Western blotting with an antibody to Bcl-2. D. Effect of genistein or TNF a on survivin expression. HeLa cells were treated with the tyrosine kinase inhibitor genistein (25 μM) or TNF a (5 ng/ml) for 48 h, harvested and analyzed for survivin expression by Western blotting. For all panels, relative molecular weight markers in kDa are shown on the left. E. Flavopiridol-induced apoptosis. […] The percentage of apoptotic cells with sub-G1DNA content is indicated. Insert, nuclear morphology of apoptosis (DNA fragmentation, chromatin condensation) in untreated or flavopiridol-treated HeLa cells, by DAPI staining.
as §1

T1 sequence (P06493 whole entry): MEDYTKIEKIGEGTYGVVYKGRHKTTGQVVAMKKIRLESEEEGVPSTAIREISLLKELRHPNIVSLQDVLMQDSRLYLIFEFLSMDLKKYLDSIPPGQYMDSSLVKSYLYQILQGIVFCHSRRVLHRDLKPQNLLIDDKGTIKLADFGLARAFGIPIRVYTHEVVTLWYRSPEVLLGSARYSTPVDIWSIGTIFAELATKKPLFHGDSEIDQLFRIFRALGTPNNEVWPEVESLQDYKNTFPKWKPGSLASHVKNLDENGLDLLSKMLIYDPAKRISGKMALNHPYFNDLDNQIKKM
T1 sequence (P14635 whole entry partner): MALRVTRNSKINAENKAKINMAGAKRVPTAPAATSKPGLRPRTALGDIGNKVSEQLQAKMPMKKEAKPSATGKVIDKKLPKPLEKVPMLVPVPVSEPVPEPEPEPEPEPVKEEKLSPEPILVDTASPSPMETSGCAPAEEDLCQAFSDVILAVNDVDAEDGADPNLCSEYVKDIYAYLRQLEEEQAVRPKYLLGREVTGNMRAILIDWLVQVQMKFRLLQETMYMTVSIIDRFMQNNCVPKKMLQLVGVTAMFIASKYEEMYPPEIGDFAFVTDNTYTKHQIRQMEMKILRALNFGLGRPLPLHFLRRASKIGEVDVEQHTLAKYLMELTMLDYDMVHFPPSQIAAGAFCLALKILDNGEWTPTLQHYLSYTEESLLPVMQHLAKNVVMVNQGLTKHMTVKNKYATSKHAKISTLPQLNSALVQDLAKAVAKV
p34^cdc2-cyclin B1, sequence (P06493 whole entry): as the sequence (P06493 whole entry) above
p34^cdc2-cyclin B1, sequence (P14635 whole entry partner): as the sequence (P14635 whole entry partner) above

CN1CC[C@H](c2c(O)cc(O)c3c(=O)cc(-c4ccccc4Cl)oc23)[C@H](O)C1 [flavopiridol]
kinetics of tumor growth vs vehicle (MCF-7 xenografts): did not affect the kinetics of tumor growth | survivin phosphorylation on Thr^34 [1]: suppressed survivin phosphorylation on Thr^34 | survivin phosphorylation on Thr^34 [2]: concentration-dependent inhibition of phosphorylation on Thr^34 | H1 phosphorylation by immunoprecipitated p34^cdc2 (p34^cdc2): dose-dependent inhibition of H1 phosphorylation | phosphorylation of H1 and wild type survivin by p34^cdc2-cyclin B1 (p34^cdc2-cyclin B1): suppressed phosphorylation of H1 and wild type survivin | survivin levels ([3]; anti-cancer agents (adriamycin, UVB) 18 h followed by flavopiridol 72 h): suppressed survivin levels to background values of untreated cultures | survivin levels ([3]; flavopiridol alone 100 nM for 72 h): did not significantly affect survivin levels | population with hypodiploid (apoptotic) DNA content (HeLa cells): concentration-dependent increase in the population with hypodiploid (apoptotic) DNA content | survivin expression ([4]; 1 and 25 nM flavopiridol and between 12 and 72 hours): modest increase in survivin expression | survivin expression ([4]; flavopiridol 100 nM, 84-96 h treatment): Nearly complete loss of survivin expression | survivin expression ([4]; higher flavopiridol concentrations, 24 h): complete loss of survivin expression | survivin expression, concentration dependence ([4]; increasing flavopiridol concentrations, 48 h): concentration-dependent decrease in survivin expression | MPM-2 mitotic phosphoepitope expression ([5]; taxol 0.2 μM 16 h then Cdk inhibitor for 16 h (Purvalanol A 10 μM, alsterpaullone 20 μM, flavopiridol 250 nM, olomoucine 400 μM)): partially inhibited MPM-2 expression | MPM-2 mitotic phosphoepitope expression ([5]; taxol 0.2 μM 16 h then Cdk inhibitor for 32 h): suppressed mitotic phosphoprotein expression | Bcl-2 expression [6]: did not affect expression of antiapoptotic Bcl-2
